Among the test systems are M14 melanoma; RXF 393 renal; SF-268 CNS; 786-0 renal; SK-MEL-5 melanoma; OVCAR-5 ovarian; EKVX NSCLC; NCI-H522 lung; IGROV1 ovarian; K-562 leukemia.
Common to all, as to test: NCI anticancer screen, dose series, 48 h

Each structure is given as a SMILES string. “And” between values parts separate entries of the source, which are not always exact repeats. Identical values can stand only once.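 Assay format: 96-well plates, 48-hour exposure. GI50: concentration for 50% inhibition of growth. At the TGI there is no net growth.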

`c1cnc2[nH]cc(-c3csc(-c4cn(CCCCN5CCOCC5)c5ccccc45)n3)c2c1`: the GI50 is 1.78 µM with M14 melanoma; 1.67 µM in the experiment on RXF 393 renal; 1.76 µM in the experiment with SF-268 CNS; 1.85 µM in the experiment with 786-0 renal; 1.73 µM in the experiment on SK-MEL-5 melanoma; 1.82 µM with OVCAR-5 ovarian. Besides, the GI50 with EKVX NSCLC was 2.07 µM; in the experiment on NCI-H522 lung it was 1.95 µM; in the experiment with IGROV1 ovarian, 1.43 µM; with K-562 leukemia it was 2.02 µM. The TGI with M14 melanoma is 3.62 µM; in the experiment with RXF 393 renal, 3.31 µM; with SF-268 CNS it was 3.71 µM; with 786-0 renal, 3.33 µM; in the experiment with SK-MEL-5 melanoma, 3.16 µM; in the experiment with OVCAR-5 ovarian, 3.45 µM. Besides, the TGI was 4.74 µM in the experiment with EKVX NSCLC, 3.77 µM with NCI-H522 lung, 4.25 µM in the experiment on IGROV1 ovarian and 3.93 µM in the experiment on K-562 leukemia.
`CCOC(=O)NN1C(=O)C(=P(c2ccccc2)(c2ccccc2)c2ccccc2)C(C(=O)OCC)=C1C`: the TGI in the experiment on M14 melanoma, in the experiment on RXF 393 renal, in the experiment with SF-268 CNS, in the experiment with 786-0 renal, in the experiment with SK-MEL-5 melanoma and with OVCAR-5 ovarian was greater than 100 µM in each case. For the same molecule, the TGI in the experiment with EKVX NSCLC, in the experiment with NCI-H522 lung, with IGROV1 ovarian and in the experiment with K-562 leukemia was greater than 100 µM in each case.
In the case of `CCCCn1cnc2c(SC)ncnc21`, the TGI with M14 melanoma, in the experiment on RXF 393 renal, in the experiment on SF-268 CNS, in the experiment with 786-0 renal, in the experiment with SK-MEL-5 melanoma and in the experiment on OVCAR-5 ovarian was greater than 100 µM each time. The TGI in the experiment on EKVX NSCLC, in the experiment with NCI-H522 lung, in the experiment with IGROV1 ovarian and with K-562 leukemia was greater than 100 µM each time.
As to `CC1S(=O)(=O)OCCOS1(=O)=O`, the TGI in the experiment on M14 melanoma, in the experiment with RXF 393 renal, with SF-268 CNS, with 786-0 renal, in the experiment with SK-MEL-5 melanoma and with OVCAR-5 ovarian was greater than 100 µM throughout. Moreover, the TGI with EKVX NSCLC, in the experiment on NCI-H522 lung, in the experiment with IGROV1 ovarian and in the experiment on K-562 leukemia was greater than 100 µM each time.
As for `Cc1cc(C(C#N)c2ccc(Cl)cc2)c(Cl)cc1NC(=O)c1cc(I)cc(I)c1O` (stereo unspecified), the GI50 in the experiment with M14 melanoma is 14.7 µM and 16.3 µM; in the experiment on RXF 393 renal, 10.8 µM and 5.95 µM; in the experiment with SF-268 CNS, 7.58 µM and 13.8 µM; in the experiment on 786-0 renal, 12.6 µM and 16.6 µM; in the experiment on SK-MEL-5 melanoma, 3.09 µM and 14.2 µM; with OVCAR-5 ovarian, 11 µM and 15.5 µM. In addition, the GI50 was 6.71 µM and 13.2 µM with EKVX NSCLC; 3.48 µM and 17.8 µM with NCI-H522 lung; 10.5 µM and 16.1 µM in the experiment with IGROV1 ovarian; 15.5 µM with K-562 leukemia. Further, the TGI is 29.9 µM and 34.2 µM in the experiment on M14 melanoma; 23.7 µM and 19.4 µM in the experiment on RXF 393 renal; 22.2 µM and 31.3 µM with SF-268 CNS; 25.1 µM and 34.7 µM with 786-0 renal; 11 µM and 27.3 µM in the experiment with SK-MEL-5 melanoma; 29.2 µM and 32 µM with OVCAR-5 ovarian. Also, the TGI with EKVX NSCLC was 31.1 µM and 33.7 µM; with NCI-H522 lung it was 10.5 µM and 47.2 µM; in the experiment with IGROV1 ovarian, 40.9 µM and 36.5 µM; in the experiment on K-562 leukemia it was 47.5 µM.
For the molecule `CCOc1ccc(NCc2cc(OC)c(OC)c(OC)c2)cc1`, the TGI was greater than 100 µM in the experiment with M14 melanoma; greater than 100 µM in the experiment with SF-268 CNS; greater than 100 µM in the experiment with 786-0 renal; 52.9 µM and > 60.6 µM in the experiment with SK-MEL-5 melanoma; greater than 93.8 µM in the experiment on OVCAR-5 ovarian; greater than 100 µM in the experiment on EKVX NSCLC. For the same molecule, the TGI was 1.78 µM and 2.55 µM in the experiment on NCI-H522 lung; greater than 84 µM with IGROV1 ovarian; greater than 63.1 µM with K-562 leukemia. In addition, the GI50 in the experiment on RXF 393 renal was 2.24 µM; in the experiment on OVCAR-5 ovarian it was 10.5 µM and 4.43 µM.
For `O=C(O)c1cc(=O)c2[nH]c3ccccc3c2s1`, the TGI in the experiment with M14 melanoma, with RXF 393 renal, with SF-268 CNS, in the experiment on 786-0 renal, in the experiment on SK-MEL-5 melanoma and in the experiment with OVCAR-5 ovarian was greater than 100 µM each time. The TGI with EKVX NSCLC, in the experiment with NCI-H522 lung, with IGROV1 ovarian and with K-562 leukemia was greater than 100 µM throughout.
For `Clc1nc(Cl)c2ncn(Cc3ccc(COc4cccc(OCc5ccc(Cn6cnc7c(Cl)nc(Cl)nc76)cc5)c4)cc3)c2n1`, the GI50 is 21.9 µM in the experiment on M14 melanoma; greater than 100 µM in the experiment on RXF 393 renal; greater than 100 µM with SF-268 CNS; 36.2 µM with 786-0 renal; 14.3 µM in the experiment with SK-MEL-5 melanoma; 49.8 µM in the experiment on OVCAR-5 ovarian. Besides, the GI50 was 91.4 µM with EKVX NSCLC, 61.9 µM with NCI-H522 lung, 69.4 µM with IGROV1 ovarian and 25.9 µM in the experiment with K-562 leukemia. The TGI with M14 melanoma is 85.9 µM; with RXF 393 renal, greater than 100 µM; with SF-268 CNS, greater than 100 µM; in the experiment with 786-0 renal it was greater than 100 µM; in the experiment with SK-MEL-5 melanoma, 95.5 µM; in the experiment on OVCAR-5 ovarian, greater than 100 µM. For the same molecule, the TGI in the experiment on EKVX NSCLC, in the experiment with NCI-H522 lung, in the experiment with IGROV1 ovarian and in the experiment with K-562 leukemia was greater than 100 µM in each case.
Consider `OCCCCCCOc1ccc(-c2cc(-c3ccccn3)nc(-c3ccccn3)c2)cc1`, for which the TGI with M14 melanoma came out at 4.3 µM; in the experiment with RXF 393 renal it was 0.853 µM; in the experiment on SF-268 CNS, 1.32 µM; with 786-0 renal it was 0.551 µM; in the experiment on SK-MEL-5 melanoma it was 3.48 µM; in the experiment on OVCAR-5 ovarian, 4.14 µM. Further, the TGI worked out at 4.97 µM in the experiment with EKVX NSCLC, 3.32 µM in the experiment with NCI-H522 lung, 2.7 µM in the experiment with IGROV1 ovarian and 3.78 µM with K-562 leukemia.
For `CC12CCC(=O)C=C1CCC1C2C(O)CC2(C)C(c3csc(N)n3)CCC12` (stereo unspecified), the TGI with M14 melanoma, in the experiment with RXF 393 renal, in the experiment with SF-268 CNS, with 786-0 renal, with SK-MEL-5 melanoma and in the experiment with OVCAR-5 ovarian was greater than 100 µM each time. In addition, the TGI with EKVX NSCLC, in the experiment with NCI-H522 lung, in the experiment with IGROV1 ovarian and in the experiment on K-562 leukemia was greater than 100 µM throughout.

Values taken from PubChem BioAssay (NCI).
